The source made the active and inactive calls. The calls are words filed in the database; no cut-off is given here.
How the values were obtained:
[1] = target: T1, Trace amine-associated receptor 1 (Homo sapiens) (UniProt Q96RJ0); experiment: Agonist activity at human TAAR1 extracted from CHO-K1 cell membrane coexpressing AGTRL1/Gi by measuring maximum efficacy at 0 to 100 uM by cAMP assay relative to control; type: functional, cell membranes; conditions: dose 0-100 µM
T1 sequence (whole entry): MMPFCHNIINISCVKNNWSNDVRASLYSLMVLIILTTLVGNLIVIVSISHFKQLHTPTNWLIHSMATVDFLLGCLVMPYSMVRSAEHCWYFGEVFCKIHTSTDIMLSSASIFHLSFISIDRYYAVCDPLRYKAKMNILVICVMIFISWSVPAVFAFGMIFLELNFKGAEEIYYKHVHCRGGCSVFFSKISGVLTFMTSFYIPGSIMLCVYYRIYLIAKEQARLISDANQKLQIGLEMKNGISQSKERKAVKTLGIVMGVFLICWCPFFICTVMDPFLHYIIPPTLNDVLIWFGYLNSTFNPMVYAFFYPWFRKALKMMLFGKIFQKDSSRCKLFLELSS

[2] = target: T2, Trace amine-associated receptor 1 (Homo sapiens, UniProt Q96RJ0); experiment: Agonist activity at human TAAR1 extracted from CHO-K1 cell membrane coexpressing AGTRL1/Gi by cAMP assay; type: functional, cell membranes
T2 sequence (Q96RJ0 whole entry): T1 sequence (whole entry)

Mus musculus [3] = experiment: Antidepressant activity in chronic social defeat stress induced depressive C57BL/6J mouse model assessed as increase in time of interaction zone at 10 mg/kg, IG measured after 15 mins by open field test; type: functional, organism-based
[4] = target: T3, 5-hydroxytryptamine receptor 2C (Homo sapiens, UniProt P28335); experiment: Agonist activity at recombinant human 5-HT2CR expressed in HEK293 cells incubated for 2 hrs by FLIPR calcium assay; type: functional, cell-based
T3 sequence (P28335 whole entry): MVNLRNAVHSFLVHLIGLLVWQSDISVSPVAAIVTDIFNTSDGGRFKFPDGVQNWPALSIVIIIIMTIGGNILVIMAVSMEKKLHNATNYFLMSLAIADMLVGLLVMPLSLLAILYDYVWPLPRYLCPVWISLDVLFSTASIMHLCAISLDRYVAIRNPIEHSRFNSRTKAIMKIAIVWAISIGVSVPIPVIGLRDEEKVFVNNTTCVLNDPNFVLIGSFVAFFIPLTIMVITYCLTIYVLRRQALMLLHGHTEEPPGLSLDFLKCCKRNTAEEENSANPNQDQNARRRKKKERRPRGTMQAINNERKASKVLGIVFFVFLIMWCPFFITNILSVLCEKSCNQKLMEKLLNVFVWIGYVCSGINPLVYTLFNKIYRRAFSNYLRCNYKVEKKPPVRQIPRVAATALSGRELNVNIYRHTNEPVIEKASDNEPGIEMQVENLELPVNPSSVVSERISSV

[5] = target: T4, 5-hydroxytryptamine receptor 2C (Homo sapiens) (UniProt P28335); experiment: Agonist activity at recombinant human 5-HT2CR expressed in HEK293 cells incubated for 2 hrs by measuring maximum efficacy by FLIPR calcium assay relative to control; type: functional, cell-based
T4 sequence (whole entry): T3 sequence (P28335 whole entry)

[6] = target: Trace amine-associated receptor 1 (Mus musculus, UniProt Q923Y8); experiment: Agonist activity at mouse TAAR1; type: functional
[7] = target: Trace amine-associated receptor 1 (Mus musculus) (UniProt Q923Y8); experiment: Agonist activity at mouse TAAR1 by measuring maximum efficacy relative to control; type: functional; conditions: filed as agonist
[8] = target: Trace amine-associated receptor 1 (Rattus norvegicus, UniProt Q923Y9); experiment: Agonist activity at rat TAAR1; type: functional
[9] = target: Trace amine-associated receptor 1 (Rattus norvegicus) (UniProt Q923Y9); experiment: Agonist activity at rat TAAR1 by measuring maximum efficacy relative to control; type: functional; conditions: filed as agonist
Mus musculus [10] = species on record: Mus musculus; experiment: Antipsychotic activity against MK-801 induced hyperlocomotion in male C57BL/6J mouse model assessed as effective dose; type: functional
[11] = target: 5-hydroxytryptamine receptor 2C (Rattus norvegicus) (UniProt P08909); experiment: Agonist activity at rat 5-HT2CR by measuring maximum efficacy relative to control; type: functional; conditions: filed as agonist
Mus musculus [12] = experiment: Antipsychotic activity against DOI-induced head-twitch response in mouse assessed as reduction in head-twitch response at 10 mg/kg, IG measured for 30 mins; type: functional, organism-based
Mus musculus [13] = experiment: Antipsychotic activity in amyloid beta (1 to 42) induced hyperlocomotion in mouse model assessed as decrease in total distance traveled at 10 mg/kg by open field test; type: functional, organism-based
Mus musculus [14] = experiment: Antipsychotic activity in amyloid beta(1 to 42) induced cognitive impairment in mouse model assessed as increase in discrimination ratio of novel objects at 1 mg/kg, IG measured after 24 hrs by novel object recognition test; type: functional, organism-based
Mus musculus [15] = experiment: Antipsychotic activity in amyloid beta(1 to 42) induced cognitive impairment in mouse model assessed as reduction in exploration time at 1 mg/kg, IG measured after 24 hrs by novel object recognition test; type: functional, organism-based
[16] = target: T4, 5-hydroxytryptamine receptor 2C (Homo sapiens); experiment: Partial agonist activity at recombinant human 5-HT2CR expressed in HEK293 cells incubated for 2 hrs by measuring maximum efficacy by FLIPR calcium assay relative to control; type: functional, cell-based; conditions: filed as partial agonist
Mus musculus [17] = experiment: Antipsychotic activity against MK-801 induced hypermobilization in male C57BL/6J mouse model assessed as reduction in hypermobilization state at 3 mg/kg, IG pretreated with compound followed by MK-801 addition and measured after 30 mins by open field test; type: functional, organism-based

Trace amine-associated receptor 1 (Rattus norvegicus), sequence (Q923Y9 whole entry): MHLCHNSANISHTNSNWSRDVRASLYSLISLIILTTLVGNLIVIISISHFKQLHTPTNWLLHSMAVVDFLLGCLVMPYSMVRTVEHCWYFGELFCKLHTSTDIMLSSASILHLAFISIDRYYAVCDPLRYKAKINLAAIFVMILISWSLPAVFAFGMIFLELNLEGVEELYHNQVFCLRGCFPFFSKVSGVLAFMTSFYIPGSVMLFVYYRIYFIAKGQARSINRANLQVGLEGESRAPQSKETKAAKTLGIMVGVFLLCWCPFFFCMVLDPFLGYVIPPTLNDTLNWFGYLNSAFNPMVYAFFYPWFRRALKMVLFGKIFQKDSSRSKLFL
Trace amine-associated receptor 1 (Rattus norvegicus, UniProt Q923Y9), sequence (Q923Y9 whole entry): as above
5-hydroxytryptamine receptor 2C (Rattus norvegicus), sequence (P08909 whole entry): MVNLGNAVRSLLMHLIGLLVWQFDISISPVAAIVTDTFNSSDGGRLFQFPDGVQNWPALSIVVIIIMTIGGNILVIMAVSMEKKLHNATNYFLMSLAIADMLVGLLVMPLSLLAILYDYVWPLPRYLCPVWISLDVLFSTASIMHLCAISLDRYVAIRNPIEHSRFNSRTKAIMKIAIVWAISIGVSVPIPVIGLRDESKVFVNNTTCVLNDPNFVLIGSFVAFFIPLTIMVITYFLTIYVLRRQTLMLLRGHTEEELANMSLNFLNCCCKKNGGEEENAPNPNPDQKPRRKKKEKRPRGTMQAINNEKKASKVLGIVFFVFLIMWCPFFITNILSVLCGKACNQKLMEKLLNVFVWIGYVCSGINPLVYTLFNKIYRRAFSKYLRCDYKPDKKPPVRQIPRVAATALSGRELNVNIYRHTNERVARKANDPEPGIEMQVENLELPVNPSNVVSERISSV
Trace amine-associated receptor 1 (Mus musculus), sequence (Q923Y8 whole entry): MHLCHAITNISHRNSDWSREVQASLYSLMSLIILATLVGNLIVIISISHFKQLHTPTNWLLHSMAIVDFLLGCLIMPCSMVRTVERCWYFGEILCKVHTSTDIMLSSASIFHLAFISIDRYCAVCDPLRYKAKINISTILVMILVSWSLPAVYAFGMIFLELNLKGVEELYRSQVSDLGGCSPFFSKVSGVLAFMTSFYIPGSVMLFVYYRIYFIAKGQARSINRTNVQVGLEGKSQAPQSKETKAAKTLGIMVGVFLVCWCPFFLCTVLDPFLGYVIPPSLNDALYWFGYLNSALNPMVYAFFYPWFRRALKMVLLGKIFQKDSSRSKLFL
Trace amine-associated receptor 1 (Mus musculus, UniProt Q923Y8), sequence (Q923Y8 whole entry): as above

Structure (SMILES) | Emax ([1]; filed as agonist) [%] | EC50 [2] [µM] | also measured
CNCC1SCCc2ccsc21 (stereo in doubt; 16b) [listing 1 of 2 here] | 74.6 | – | –
CCCN1CCc2ccsc2C1CN (stereo in doubt; 19b) [listing 1 of 2 here] | – | 6.93 | –
c1csc(C2CNCO2)c1 (racemic) | 97 | 6.4 | –
Cc1cc2c(s1)Nc1ccccc1N=C2N1CCN(C)CC1 | – | – | Activity (Mus musculus [3]): Active
CNCC1OC(C)(C)Cc2ccsc21 (racemic) | 99.6 | – | –
CC(C)Oc1ccsc1C1CNCCO1 (racemic) | – | > 100 | Emax [1]: 18.1%
CCCCCN1CCc2ccsc2C1CN (stereo in doubt; 20a) [listing 1 of 2 here] | – | – | Emax [1]: 0%
CNCC1NCCc2ccsc21 (stereo in doubt; 17a) [listing 1 of 2 here] | – | 42.1 | –
CC1(c2cccs2)CNCCO1 (racemic) | 92.6 | 20.7 | –
c1cc2c(s1)CCN1CCNCC21 (stereo in doubt; 23b) [listing 1 of 2 here] | – | 1.03 | –
FC(F)(F)COc1ccsc1C1CNCCO1 (racemic) | 97.7 | – | –
c1csc([C@@H]2CNCCO2)c1 | 80.1 | – | EC50 [4]: 3.49 µM; Emax ([5]; filed as agonist): 101%
CNCC1OC(COC)Cc2ccsc21 (racemic) | 64 | 38 | –
CC(=O)c1ccsc1C1CNCCO1 (stereo in doubt; 36b) [listing 1 of 2 here] | 41.7 | – | –
OCC1OCCc2ccsc21 (stereo in doubt; 15b) | – | – | Emax [1]: 2.72%
FC(F)COc1ccsc1C1CNCCO1 (racemic) | 75.2 | 32.4 | –
CNCC1SCCc2ccsc21 (stereo in doubt; 16b) [listing 2 of 2 here] | – | 0.522 | –
COc1csc(C2CNCCO2)c1 (stereo in doubt; 26a) [listing 1 of 2 here] | 63.8 | – | –
COc1ccc(C2CNCCO2)s1 (stereo in doubt; 27b) [listing 1 of 2 here] | – | 1.59 | –
c1ccc2sc(C3CNCCO3)cc2c1 (racemic) | 72.1 | 4.35 | –
OCC1OCCc2ccsc21 (stereo in doubt; 15a) [listing 1 of 2 here] | – | – | Emax [1]: 1.94%
CCCN1CCc2ccsc2C1CN (stereo in doubt; 19a) [listing 1 of 2 here] | – | – | Emax [1]: 35.7%

Structure (SMILES) | Emax ([1]; filed as agonist) [%] | EC50 [2] [µM] | also measured
c1cc2c(o1)C1CNCCN1CC2 (stereo in doubt; 22b) [listing 1 of 2 here] | – | 0.776 | –
CCCN1CCc2ccsc2C1CN (stereo in doubt; 19a) [listing 2 of 2 here] | – | 7.97 | –
COc1ccsc1C1CNCCO1 (stereo in doubt; 25b) | 76.4 | – | –
CCCCCN1CCc2ccsc2C1CN (stereo in doubt; 20b) | – | – | Emax [1]: 15.6%
CNCC1OCCc2ccoc21 (racemic) | 105 | – | –
COc1csc(C2CNCCO2)c1 (stereo in doubt; 26b) [listing 1 of 2 here] | – | 2.16 | –
COc1ccc(C2CNCCO2)s1 (stereo in doubt; 27a) [listing 1 of 2 here] | 69 | – | –
NCCc1ccc(O)cc1 [TYRAMINE] | 103 | 0.93 | EC50 [6]: 0.85 µM; Emax [7]: 103%; EC50 [8]: 0.228 µM; Emax [9]: 99%
Fc1ccsc1C1CNCCO1 (racemic) | 100 | 0.252 | –
CCc1[nH]nc(C(=O)Nc2ccc([C@H]3CNCCO3)cc2)c1C [RALMITARONT] | 66 | – | EC50 [4]: > 100 µM; Emax [5]: 0.13%; ED50 (Mus musculus [10]): < 400 mg/kg
c1cc2c(s1)CCN1CCNCC21 (stereo in doubt; 23a) [listing 1 of 2 here] | – | 14.2 | –
Fc1csc(C2CNCCO2)c1 (racemic) | 107 | – | –
COc1csc(C2CNCCO2)c1 (stereo in doubt; 26b) [listing 2 of 2 here] | 85.6 | – | –
CNCC1OCC(C)(C)c2ccsc21 (racemic) | 53.3 | 24.1 | –
c1ccc2c(c1)CCN1CCNCC21 (racemic) [AZAQUINZOLE] | – | 41.7 | Emax [1]: 37.2%
CNCC1NCCc2ccsc21 (stereo in doubt; 17a) [listing 2 of 2 here] | – | – | Emax [1]: 33.8%
c1cc2c(o1)C1CNCCN1CC2 (stereo in doubt; 22a) [listing 1 of 2 here] | – | 0.036 | –
CC(=O)c1ccsc1C1CNCCO1 (stereo in doubt; 36b) [listing 2 of 2 here] | – | 15.2 | –
CNCC1NCCc2ccsc21 (stereo in doubt; 17b) [listing 1 of 2 here] | 61.2 | – | –
NCCc1c[nH]c2ccc(O)cc12 | – | – | Emax [11]: 102%
c1cc2c(o1)C1CNCCN1CC2 (stereo in doubt; 22b) [listing 2 of 2 here] | 94.3 | – | –
CCCCCN1CCc2ccsc2C1CN (stereo in doubt; 20a) [listing 2 of 2 here] | – | > 30 | –

Structure (SMILES) | Emax ([1]; filed as agonist) [%] | EC50 [2] [µM] | also measured
FCCOc1ccsc1C1CNCCO1 (racemic) | 46.7 | – | –
CN1CCc2ccsc2C1CN (stereo in doubt; 18b) | 96.5 | – | –
O=c1ccc2ccc(OCCCCN3CCN(c4cccc5sccc45)CC3)cc2[nH]1 | – | – | Activity (Mus musculus [12]): Active; Activity (Mus musculus [13]): Active; Activity (Mus musculus [14]): inactive; Activity (Mus musculus [15]): Active
c1cc2c(s1)CCN1CCNCC21 (stereo in doubt; 23a) [listing 2 of 2 here] | 51 | – | –
c1cc(C2CC2)c(C2CNCCO2)s1 (racemic) | 98.6 | – | –
CNCC1NCCc2ccsc21 (stereo in doubt; 17b) [listing 2 of 2 here] | – | 7.96 | –
CN1CCc2ccsc2C1CN (stereo in doubt; 18a) [listing 1 of 2 here] | – | – | Emax [1]: 18.9%
OCC1OCCc2ccsc21 (stereo in doubt; 15a) [listing 2 of 2 here] | – | > 100 | –
CC(=O)c1ccsc1C1CNCCO1 (stereo in doubt; 36a) [listing 1 of 2 here] | – | > 100 | –
Fc1ccc(C2CNCCO2)s1 (racemic) | 80.8 | – | –
CN1CCc2ccsc2C1CN (stereo in doubt; 18a) [listing 2 of 2 here] | – | > 100 | –
COc1ccsc1C1CNCCO1 (stereo in doubt; 25a) | 94.1 | – | Emax [16]: 68.3%; Activity (Mus musculus [17]): Active; Similar Effect Compared To Ulotaront
CCCN1CCc2ccsc2C1CN (stereo in doubt; 19b) [listing 2 of 2 here] | – | – | Emax [1]: 34.3%
c1cc2c(s1)CCN1CCNCC21 (stereo in doubt; 23b) [listing 2 of 2 here] | 77 | – | –
c1cc2c(o1)C1CNCCN1CC2 (stereo in doubt; 22a) [listing 2 of 2 here] | 95.6 | – | –
COc1ccccc1C1CNCCO1 (racemic) | 79 | 1.39 | –
COc1csc(C2CNCCO2)c1 (stereo in doubt; 26a) [listing 2 of 2 here] | – | 23.6 | –
CC(=O)c1ccsc1C1CNCCO1 (stereo in doubt; 36a) [listing 2 of 2 here] | – | – | Emax [1]: 2.04%
CNCC1SCCc2ccsc21 (stereo in doubt; 16a) [listing 1 of 2 here] | – | – | Emax [1]: 37.4%
COc1ccc(C2CNCCO2)s1 (stereo in doubt; 27b) [listing 2 of 2 here] | 96.9 | – | –
COc1ccc(C2CNCCO2)s1 (stereo in doubt; 27a) [listing 2 of 2 here] | – | 37.5 | –
CNCC1SCCc2ccsc21 (stereo in doubt; 16a) [listing 2 of 2 here] | – | 20.7 | –

— ChEMBL document CHEMBL6109139, “Rational Design of the First Dual Agonist at Trace Amine-Associated Receptor 1 and 5-HT2C Receptors Based on Binding Pocket Similarity for the Treatment of Schizophrenia and Alzheimer's Disease-Related Psychosis” (J Med Chem, 2025)
